The compounds below were run against T1, human RXFP1 (Homo sapiens, UniProt Q9HBX9) (assay: hRXFP1 HEK293 cAMP assay (HTRF)). Conditions: HEK293 cells stably expressing human RXFP1, 30 min at room temperature.
T1 construct: expressed in transfected cells
T1 sequence (Q9HBX9 1-757): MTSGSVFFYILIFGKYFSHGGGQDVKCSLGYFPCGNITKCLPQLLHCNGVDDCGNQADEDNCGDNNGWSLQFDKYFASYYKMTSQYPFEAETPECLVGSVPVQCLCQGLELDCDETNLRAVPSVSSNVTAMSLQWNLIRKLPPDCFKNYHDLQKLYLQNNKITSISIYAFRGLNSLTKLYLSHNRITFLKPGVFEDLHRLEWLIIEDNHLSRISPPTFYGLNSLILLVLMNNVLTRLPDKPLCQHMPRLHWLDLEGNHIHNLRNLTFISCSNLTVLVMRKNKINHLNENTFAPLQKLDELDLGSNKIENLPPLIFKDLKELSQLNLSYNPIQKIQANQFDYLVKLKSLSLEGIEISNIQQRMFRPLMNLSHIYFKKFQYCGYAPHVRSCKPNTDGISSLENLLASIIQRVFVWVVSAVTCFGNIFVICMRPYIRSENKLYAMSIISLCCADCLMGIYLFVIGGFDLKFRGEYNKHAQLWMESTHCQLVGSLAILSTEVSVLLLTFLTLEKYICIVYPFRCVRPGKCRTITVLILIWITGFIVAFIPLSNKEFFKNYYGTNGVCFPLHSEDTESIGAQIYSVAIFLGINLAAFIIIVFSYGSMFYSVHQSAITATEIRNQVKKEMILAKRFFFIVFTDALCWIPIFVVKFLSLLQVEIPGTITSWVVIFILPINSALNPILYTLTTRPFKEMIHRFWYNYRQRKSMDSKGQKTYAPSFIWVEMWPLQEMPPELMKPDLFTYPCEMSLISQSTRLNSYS
Assay type: cell-based
Outline: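 HEK293 cells stably expressing human RXFP1 (1500 cells/well) in HBSS/20 mM HEPES/0.05% BSA/0.5 mM IBMX. Compounds were tested at 0.010 nM–50 μM final (2% DMSO) for 30 min at room temperature. cAMP was measured by HTRF and values derived by 4-parameter logistic fit.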

EC50 [µM] | Compound
0.11 | COc1ccc(COCC2CC(F)(F)C2)cc1C(=O)N[C@H]1[C@@H](C(=O)Nc2ccc(F)c(C(F)(F)F)c2)[C@H]2CC[C@@H]1/C2=C\C1CC1 [Example 283, (1R,2S,3R,4R,7Z)-7-(cyclopropyl-methylidene)-3-(5-{[(3,3-difluorocyclobutyl)methoxy]methyl}-2-methoxybenzamido)-N-[4-fluoro-3-(trifluoromethyl)phenyl] bicyclo[2.2.1] heptane-2-carboxamide]
0.006 | COc1ccc([C@H]2C[C@H](O)C2)cc1C(=O)NC1C2CCC(/C2=C/C2CC2)[C@@H]1C(=O)Nc1ccc(F)c(C(F)(F)F)c1 (stereo partly drawn) [Example 148, (2S,3R,7Z)-7-(cyclopropylmethyli-dene)-N-[4-fluoro-3-(trifluoromethyl)phe-nyl]-3-{2-methoxy-5-[(1r,3r)-3-hydroxycyclobutyl]benzamido}bicyclo [2.2.1]heptane-2-carboxamide]
0.625 | COc1ccc(CN2CCOCC2)cc1C(=O)N[C@@H]1C2CCC(/C2=C/C(F)(F)F)[C@@H]1C(=O)Nc1ccc(F)c(C(F)(F)F)c1 (stereo partly drawn) [Example 13, (2S,3R,7Z)N-[4-fluoro-3-(trifluoromethyl)phe-nyl]-3-{2-methoxy-5-[(morpholin-4-yl)methyl]benzamido}-7-(2,2,2-trifluoroethylidene)bi-cyclo[2.2.1]heptane-2-carboxamide]
0.725 | COc1ccc(CCCCCOC(=O)NC2CCC2)cc1C(=O)N[C@@H]1C2CCC(/C2=C/C(F)(F)F)[C@@H]1C(=O)Nc1ccc(F)c(C(F)(F)F)c1 (stereo partly drawn) [Example 103, 5-(3-{[(2R,3S,7Z)-3-{[4-fluoro-3-(trifluoromethyl)phe-nyl]carbamoyl}-7-(2,2,2-trifluoroethylidene)bi-cyclo[2.2.1]heptan-2-yl]carbamoyl}-4-methoxyphenyl)pent-yl N-cyclobutylcarbamate]
0.428 | COc1ccc(CCC(=O)N2CC[C@H](O)C2)cc1C(=O)N[C@@H]1C2CCC(/C2=C/C(F)(F)F)[C@@H]1C(=O)Nc1ccc(F)c(C(F)(F)F)c1 (stereo partly drawn) [Example 138, (2S,3R,7Z)-N-[4-fluoro-3-(trifluoromethyl)phe-nyl]-3-(5-{3-[(3S)-3-hydroxypyrrolidin-1-yl]-3-oxopropyl}-2-methoxybenzamido)-7-(2,2,2-trifluoroethylidene)bi-cyclo[2.2.1]heptane-2-carboxamide]
0.087 | COc1ccc(/C=C/C(=O)N2CCO[C@@H](CO)C2)cc1C(=O)N[C@H]1[C@@H](C(=O)Nc2ccc(F)c(C(F)(F)F)c2)[C@H]2CC[C@@H]1/C2=C\C(F)(F)F [Example 310]
4.27 | COc1ccc(S(=O)(=O)N2CCN(C(=O)OC(C)(C)C)[C@H](CO)C2)cc1C(=O)N[C@H]1[C@@H](C(=O)Nc2ccc(F)c(C(F)(F)F)c2)[C@H]2CC[C@@H]1/C2=C\C(F)(F)F [Example 225, tert-butyl (2S)-4-(3-{[(1R,2R,3S,4R,7Z)-3-{[4-fluoro-3-(trifluoromethyl)phenyl]carbamoyl}-7-(2,2,2-trifluoroethylidene)bicyclo[2.2.1]heptan-2-yl]carbamoyl}-4-methoxy-benzenesulfonyl-2-(hydroxymethyl)piperazine-1-carboxylate]
0.0028 | COc1c(F)cc(C(=O)N2CC(S(C)(=O)=O)C2)cc1C(=O)N[C@H]1[C@@H](C(=O)Nc2ccc(F)c(C(F)(F)F)c2)[C@H]2CC[C@@H]1/C2=C\C1CCCC1 [Example 365, (1R,2S,3R,4R,7Z)-7-(cyclopentyl-methylidene)-N-[4-fluoro-3-(trifluoromethyl)phenyl]-3-[3-fluoro-5-(3-methanesulfonyl-azetidine-1-carbonyl)-2-methoxybenzamido] bicyclo[2.2.1]heptane-2-carboxamide]
1.71 | COc1ccc(CCC(C)C)cc1C(=O)N[C@@H]1C2CCC(/C2=C/C(F)(F)F)[C@@H]1C(=O)Nc1ccc(F)c(C(F)(F)F)c1 (stereo partly shown) [Example 83]
0.009 | COc1ccc(CCC(C)(C)O)cc1C(=O)N[C@@H]1C2CCC(/C2=C/C2CCC2)[C@@H]1C(=O)Nc1ccc(F)c(C(F)(F)F)c1 (stereo partly drawn) [Example 87, (2S,3R,7Z)-7-(cyclobutylmethyli-dene)-N-[4-fluoro-3-(trifluoromethyl)phe-nyl]-3-[5-(3-hydroxy-3-methylbutyl)-2-methoxybenzamido] bicyclo[2.2.1]heptane-2-carboxamide]
0.157 | COc1ccc(C2CCCC(OC(=O)Nc3ccccc3)C2)cc1C(=O)N[C@@H]1C2CCC(/C2=C/C(F)(F)F)[C@@H]1C(=O)Nc1ccc(F)c(C(F)(F)F)c1 (single isomer, unassigned) [Example 43]
0.276 | COc1ccc(C2CCC(O)CC2)cc1C(=O)NC1C2CCC(/C2=C/C(F)(F)F)[C@@H]1C(=O)Nc1ccc(F)c(C(F)(F)F)c1 (single isomer, unassigned) [Example 52]
1.27 | COc1ccc(C2CCCCC2O)cc1C(=O)N[C@@H]1C2CCC(/C2=C/C(F)(F)F)[C@@H]1C(=O)Nc1ccc(F)c(C(F)(F)F)c1 (mixture of isomers) [Example 59]
0.459 | COc1ccc(S(=O)(=O)N2CCN3C(=O)OCC3C2)cc1C(=O)N[C@H]1[C@@H](C(=O)Nc2ccc(F)c(C(F)(F)F)c2)[C@H]2CC[C@@H]1/C2=C\C(F)(F)F (stereo partly drawn) [Example 220, (1R,2S,3R,4R,7Z)-N-[4-fluoro-3-(trifluoromethyl)phenyl]-3-[2-methoxy-5-({3-oxo-hexahydro-1H-[1,3]oxazolo[3,4-a]piperazin-7-yl}sulfonyl)benzamido]-7-(2,2,2-trifluoroethylidene) bicyclo[2.2.1] heptane-2-carboxamide]
0.0752 | COc1ccc(C2CC3CC(O)CC32)cc1C(=O)N[C@H]1[C@@H](C(=O)Nc2ccc(F)c(C(F)(F)F)c2)[C@H]2CC[C@@H]1/C2=C\C1CC1 (single isomer, unassigned) [Example 343]
0.0013 | COc1cc(F)c(O[C@H]2CC[C@](C)(C(=O)O)CC2)cc1C(=O)N[C@@H]1C2CCC(/C2=C/C2CC2)[C@@H]1C(=O)Nc1ccc(F)c(C(F)(F)F)c1 (stereo partly drawn) [Example 375, (1R,4r)-4-(5-(((1R,2R,3S,4R,Z)-7-(cyclopropyl-methylene)-3-((4-fluoro-3-(trifluoromethyl)phenyl)carbamoyl)bicyclo[2.2.1]heptan-2-yl)carbamoyl)-2-fluoro-4-methoxyphenoxy)-1-methylcyclohexane-1-carboxylic acid]
3.05 | COc1ccc(S(=O)(=O)Nc2nnn[nH]2)cc1C(=O)NC1C2CCC(/C2=C/C(F)(F)F)[C@@H]1C(=O)Nc1ccc(F)c(C(F)(F)F)c1 (stereo partly drawn) [Example 206, (2S,3R,7Z)-N-[4-fluoro-3-(trifluoromethyl)phe-nyl]-3-{2-methoxy-5-[(1H-1,2,3,4-tetrazol-5-yl)sulfamoyl]benza-mido}-7-(2,2,2-trifluoroethylidene)bi-cyclo[2.2.1]heptane-2-carboxamide]
0.12 | COc1cc(F)c(O[C@H]2CC[C@H](C(=O)O)CC2)cc1C(=O)N[C@@H]1C2CCC(/C2=C/C2CC2)[C@@H]1C(=O)Nc1ccc(F)c(C(F)(F)F)c1 (stereo partly drawn) [Example 376, (1R,4r)-4-(5-(((1R,2R,3S,4R,Z)-7-(cyclopropyl-methylene)-3-((4-fluoro-3-(trifluoromethyl)phenyl)carbamoyl)bicyclo[2.2.1]heptan-2-yl)carbamoyl)-2-fluoro-4-methoxyphenoxy) cyclohexane-1-carboxylic acid]
0.74 | COc1ccc(/C=C/CCO)cc1C(=O)N[C@@H]1C2CCC(C2=C(C)C)[C@@H]1C(=O)Nc1ccc(F)c(C(F)(F)F)c1 (stereo partly shown) [Example 32]
0.0378 | COc1ccc(C(=O)N2CC[C@@H](CO)C2)cc1C(=O)N[C@H]1[C@@H](C(=O)Nc2ccc(F)c(C(F)(F)F)c2)[C@H]2CC[C@@H]1/C2=C\C1CC1 [Example 245, (1R,2S,3R,4R,7Z)-7-(cyclopropyl-methylidene)-N-[4-fluoro-3-(trifluoromethyl)phenyl]-3-{5-[(3R)-3-(hydroxymethyl)pyrrolidine-1-carbonyl]-2-methoxybenzamido} bicyclo[2.2.1]heptane-2-carboxamide]
1.24 | COc1ccc(CCCNCC(O)(C(F)(F)F)C(F)(F)F)cc1C(=O)N[C@H]1[C@@H](C(=O)Nc2ccc(F)c(C(F)(F)F)c2)[C@H]2CC[C@@H]1/C2=C\C(F)(F)F [Example 117, (1R,2S,3R,4R,Z)—N-(4-fluoro-3-(trifluoromethyl)phenyl)-3-(2-methoxy-5-(3-((3,3,3-trifluoro-2-hydroxy-2-(trifluoromethyl)propyl)amino)propyl)benzamido)-7-(2,2,2-trifluoroethylidene) bicyclo[2.2.1]heptane-2-carboxamide]

Compound | EC50 [µM]
(1R,4R,7Z)-N-[4- fluoro-3- (trifluoromethyl) phenyl]-3-[5-(3- hydroxypropyl)-2- methoxybenzamido]- 7-[(oxan-3- yl)methylidene] bicyclo[2.2.1]heptane- 2-carboxamide [Example 263] | 0.318

Reference: US20250268903A1, “RXFP1 AGONISTS” (BRISTOL-MYERS SQUIBB COMPANY, priority 2021, published 2025)
